For assay [1], the system named is ischemic edema of hind paw of mice. Kind of assay: Suppressive action against ischemic edema. In kind it is in vivo, ICR-strain male mice. The procedure: 4. Suppressive Action against Ischemic Edema
The right hind paw of ICR-strain male mice (11 weeks of age) were fastened with a rubber band to stop the blood stream for 20 minutes, and then the rubber band was removed to recover the blood stream. The tested drug was administered intravenously before the treatment. Each of the right and left hind paws were weighed and the suppressive action was measured according to the weight difference between the treated and untreated paws.

Assay [2] deals with T1, adenosine deaminase of type VII (mucous membrane of intestinal tract of calf) (Bos taurus, UniProt P56658).
T1 construct: from tissue; host or cells: mucous membrane of intestinal tract of calf
T1 sequence (P56658 1-363): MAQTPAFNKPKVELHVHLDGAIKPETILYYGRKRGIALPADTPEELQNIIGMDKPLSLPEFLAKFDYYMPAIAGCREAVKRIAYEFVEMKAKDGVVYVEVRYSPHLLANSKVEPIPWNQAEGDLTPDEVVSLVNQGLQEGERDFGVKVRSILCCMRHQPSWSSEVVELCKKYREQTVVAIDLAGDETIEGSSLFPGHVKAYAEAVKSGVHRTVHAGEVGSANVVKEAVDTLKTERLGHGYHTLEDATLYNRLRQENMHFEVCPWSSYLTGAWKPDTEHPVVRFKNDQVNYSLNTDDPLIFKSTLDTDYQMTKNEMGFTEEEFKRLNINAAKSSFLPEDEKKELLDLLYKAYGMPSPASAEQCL
Briefly: Adenosine deaminase inhibiting action. In kind it is biochemical. The settings on record: 25° C., 0.05M phosphate buffer pH 7.5, adenosine substrate, 5 minutes, Lineweaver-Burk plots. As for the experimental part: 1. Adenosine Deaminase Inhibiting Action
The enzymatic reaction was conducted at 25° C. in a 0.05M phosphate buffer (pH=7.5). Thus, a reaction solution comprising 800 μl of substrate solution (adenosine), 100 μl of a solution to be tested and 100 μl of enzyme solution (adenosine deaminase of type VII; mucous membrane of intestinal tract of calf) was reacted for 5 minutes and the reaction was stopped by adding 100 μl of acetic acid. Then the amount of inosine produced was determined by means of an HPLC to measure the inhibiting activity. The test was conducted for various substrate concentrations and Ki values were measured by Lineweaver-Burk plots.

As to `Oc1ncnc2[nH]ncc12` [Allopurinol], the “Paw Weight, Treated” value in assay [1] (10 mg/kg intravenous before ischemia, treated paw) amounted to 283.2 ± 6.3 mg. In assay [1] (10 mg/kg intravenous before ischemia, untreated paw), the “Paw Weight, Untreated” value turned out to be 222.9 ± 6.9 mg. In addition, the “Inhibition (of ischemic edema)” value in assay [1] (10 mg/kg intravenous, from weight difference between treated and untreated paws) was found to be 36.4%.

`CO[C@@H]1[C@H](O)[C@@H](CO)O[C@H]1n1cnc2c(N)ncnc21` [Compound 1, 2'-O-Methyladenosine]: affinity in assay [2] was put at a Ki of 13.1 µM.

`CO[C@H]1[C@@H](O)[C@H](n2cnc3c(N)ncnc32)O[C@@H]1CO` [Compound 2, 3'-O-Methyladenosine] returned a Ki in assay [2] of 493 µM. `CCCCO[C@@H]1[C@H](O)[C@@H](CO)O[C@H]1n1cnc2c(N)ncnc21` [Compound 4, 2'-O-n-Butyladenosine] came in with a Ki in assay [2] of 3.47 µM. The same measure, in the same setting: then `CO[C@@H]1[C@H](O)[C@@H](CO)O[C@H]1n1cnc2c(N)nc(C)nc21` [Compound 5, 2,2'-O-Dimethyl adenosine], with 24.6 µM; and `CO[C@H]1[C@@H](O)[C@H](n2cnc3c(N)nc(C)nc32)O[C@@H]1CO` [Compound 6, 2,3'-O-Dimethyl adenosine], with 179 µM; and `CNc1ncnc2c1ncn2[C@@H]1O[C@H](CO)[C@@H](O)[C@H]1OC` [Compound 18, N^6,2'-O-Dimethiladenosine], with 1.24 µM.

Consider `CCNc1ncnc2c1ncn2[C@@H]1O[C@H](CO)[C@@H](O)[C@H]1OC` [Compound 19, N^6 -Ethyl-2'-O-methyladenosine], for which the Ki in assay [2] turned out to be 77.8 µM. In assay [2], `CCCCNc1ncnc2c1ncn2[C@@H]1O[C@H](CO)[C@@H](O)[C@H]1OC` [Compound 20, N^6-n-Butyl-2'-O-methyladenosine] displayed a Ki of 269 µM. In turn, `CCO[C@@H]1[C@H](O)[C@@H](CO)O[C@H]1n1cnc2c(NC)ncnc21` [Compound 21, N^6 -Methyl-2'-O-ethyladenosine] yielded a Ki in assay [2] of 0.33 µM. On the same count and under the same terms, then `CCCCO[C@@H]1[C@H](O)[C@@H](CO)O[C@H]1n1cnc2c(NC)ncnc21` [Compound 22, N^6 -Methyl-2'-O-n-butyladenosine], with 0.0558 µM; and `CCCCCCO[C@@H]1[C@H](O)[C@@H](CO)O[C@H]1n1cnc2c(NC)ncnc21` [Compound 23, N^6 -Methyl-2'-O-n-hexyladenosine], with 0.89 µM.

Consider `CCCCCCCCO[C@@H]1[C@H](O)[C@@H](CO)O[C@H]1n1cnc2c(NC)ncnc21` [Compound 24, N^6 -Methyl-2'-O-n-octyladenosine], for which the affinity in assay [2], expressed as Ki, was 0.11 µM. In the case of `CNc1ncnc2c1ncn2[C@@H]1O[C@H](COC)[C@@H](O)[C@H]1O` [Compound 25, N^6, 5'-O-Dimethyladenosine], in assay [2], affinity was put at a Ki of 359 µM. On the same count and under the same terms, under `CCCCCCc1nc(NC)c2ncn([C@@H]3O[C@H](CO)[C@@H](O)[C@H]3OC)c2n1` [Compound 30, N^6,2'-O-Dimethyl-2-hexyladenosine] stands 0.09 µM; under `CCCCCCCCCCc1nc(NC)c2ncn([C@@H]3O[C@H](CO)[C@@H](O)[C@H]3OC)c2n1` [Compound 31, N^6,2'-O-Dimethyl-2-decyladenosine], 0.28 µM; under `CCCCC#Cc1nc(NC)c2ncn([C@@H]3O[C@H](CO)[C@@H](O)[C@H]3OC)c2n1` [Compound 32, N^6,2'-O-Dimethyl-2-(1-hexyn-1-yl)-adenosine], 0.12 µM.

In turn, `CCCCCCCCCCC#Cc1nc(NC)c2ncn([C@@H]3O[C@H](CO)[C@@H](O)[C@H]3OC)c2n1` [Compound 33, N^6,2'-O-Dimethyl-2-(1-dodecyn-1-yl)-adenosine] registered a Ki in assay [2] of 15 µM. Take `CNc1nc(C)nc2c1ncn2[C@@H]1O[C@H](COC)[C@@H](O)[C@H]1O` [Compound 34, 2,N^6,5'-O-Trimethyladenosine]: the Ki in assay [2] worked out at 359 µM.

`CO[C@@H]1[C@H](O)[C@@H](CO)O[C@H]1n1cnc2c(N)nc(-c3ccccc3)nc21` [Compound 37, 2-Phenyl-2'-O-methyladenosine]: the inhibitory constant (Ki) in assay [2] was determined as 0.66 µM. In the case of `CO[C@H]1[C@@H](O)[C@H](n2cnc3c(N)nc(-c4ccccc4)nc32)O[C@@H]1CO` [Compound 38, 2-Phenyl-3'-O-methyladenosine], in assay [2], affinity was put at a Ki of 7.9 µM. As for `CO[C@@H]1[C@H](O)[C@@H](CO)O[C@H]1n1cnc2c(N)nc(O)nc21` [Compound 39, 2-Hydroxy-2'-O-methyladenosine], in assay [2], the Ki stood at 19 µM.

Turning to `CO[C@@H]1[C@H](O)[C@@H](CO)O[C@H]1n1cnc2c(N)nc(Br)nc21` [Compound 43, 2-Bromo-2'-O-methyladenosine], the affinity in assay [2] corresponds to a Ki of 3.2 µM. The same measure, in the same setting: under `CO[C@H]1[C@@H](O)[C@H](n2cnc3c(N)nc(Br)nc32)O[C@@H]1CO` [Compound 44, 2-Bromo-3'-O-methyladeonsine] stands 22 µM.

On to `CNc1nc(Br)nc2c1ncn2[C@@H]1O[C@H](CO)[C@@H](O)[C@H]1OC` [Compound 45, 2-Bromo-N^6,2'-O-dimethyladenosine], for which, in assay [2], the Ki was 0.12 µM.

Take `CNc1nc(Br)nc2c1ncn2[C@@H]1O[C@H](CO)[C@@H](OC)[C@H]1O` [Compound 46, 2-Bromo-N^6,3'-O-dimethyladeonsine]: affinity in assay [2] was put at a Ki of 3.7 µM. In assay [2], `CO[C@@H]1[C@H](O)[C@@H](CO)O[C@H]1n1cnc2c(N)nc(I)nc21` [Compound 47, 2-Iodo-2'-O-methyladenosine] returned a Ki of 0.23 µM.

With `CO[C@H]1[C@@H](O)[C@H](n2cnc3c(N)nc(I)nc32)O[C@@H]1CO` [Compound 48, 2-Iodo-3'-O-methyladeonsine], the affinity in assay [2] corresponds to a Ki of 4.4 µM. Regarding `CO[C@@H]1[C@H](O)[C@@H](CO)O[C@H]1n1cnc2c(N)nc(N)nc21` [Compound 50, 2-Amino-2'-O-methyladenosine], the Ki in assay [2] amounted to 28 µM. Same read-out and setting: under `CO[C@H]1[C@@H](O)[C@H](n2cnc3c(N)nc(N)nc32)O[C@@H]1CO` [Compound 51, 2-Amino-3'-O-methyladenosine] stands 5 µM. The same measure, in the same setting: then `CCCCCNc1nc(N)c2ncn([C@@H]3O[C@H](CO)[C@@H](O)[C@H]3OC)c2n1` [Compound 52, 2-Pentylamino-2'-O-methyladenosine], with 0.6 µM; and `CO[C@@H]1[C@H](O)[C@@H](CO)O[C@H]1n1cnc2c(N)nc(Nc3ccccc3)nc21` [Compound 53, 2-Phenylamino-2'-O-methyladenosine], with 0.17 µM. As for `CO[C@H]1[C@@H](O)[C@H](n2cnc3c(N)nc(Nc4ccccc4)nc32)O[C@@H]1CO` [Compound 54, 2-Phenylamino-3'-O-methyladenosine], in assay [2], the Ki worked out at 2.2 µM. Same read-out and setting: then `CNc1nc(Nc2ccccc2)nc2c1ncn2[C@@H]1O[C@H](CO)[C@@H](O)[C@H]1OC` [Compound 55, 2-Phenylamino-N^6,2'-O-dimethyladenosine], with 0.013 µM. On the same count and under the same terms, then `CNc1nc(Nc2ccccc2)nc2c1ncn2[C@@H]1O[C@H](CO)[C@@H](OC)[C@H]1O` [Compound 56, 2-Phenylamino-N^6,3'-O-dimethyladenosine], with 0.11 µM; and `CO[C@@H]1[C@H](O)[C@@H](CO)O[C@H]1n1cnc2c(N)nc(C#CCO)nc21` [Compound 57, 2-(3-Hydroxy-1-propyn-1-yl)-2'-O-methyladenosine], with 30 µM. The same measure, in the same setting: under `CO[C@@H]1[C@H](OC)[C@@H](CO)O[C@H]1n1cnc2c(N)ncnc21` [Compound 59, 2',3'-O-Dimethyladenosine] stands 7.5 µM; under `CNc1ncnc2c1ncn2[C@@H]1O[C@H](CO)[C@@H](OC)[C@H]1OC` [Compound 60, N^6,2',3'-O-Trimethyladenosine], 0.75 µM. In assay [2], `CCO[C@@H]1[C@H](OCC)[C@@H](CO)O[C@H]1n1cnc2c(NC)ncnc21` [Compound 61, N^6 -Methyl-2',3'-O-diethyladenosine] came in with a Ki of 0.15 µM. Consider `CO[C@@H]1[C@H](OC)[C@@H](CO)O[C@H]1n1cnc2c(N)nc(C)nc21` [Compound 63, 2,2',3'-O-Trimethyladenosine], for which, in assay [2], the Ki is 1.3 µM. Regarding `CNc1nc(C)nc2c1ncn2[C@@H]1O[C@H](CO)[C@@H](OC)[C@H]1OC` [Compound 64, 2,N^6,2',3'-O-Tetramethyladenosine], in assay [2], the Ki worked out at 0.88 µM. For `CO[C@@H]1[C@H](O)[C@@H](CO)O[C@H]1n1cnc2c(NC3CCCCC3)ncnc21` [Compound 73, N^6 -Cyclohexyl-2'-O-methyladenosine], the Ki in assay [2] was determined as 1030 µM.

Usually Ki stands for the equilibrium dissociation constant of an inhibitor or competing ligand from its target. Lower therefore signals a stronger hold on the target.

The values above are taken from patent publication US5705491A, “Adenosine deaminase inhibitor” (Nippon Zoki Pharmaceutical Co., Ltd., priority 1992, dated 1998).
